Experimental data from patent US9458161B1, “TSPO ligands for cancer imaging and treatment” (Vanderbilt University, priority 2011, dated 2016).

Assays:
[1] = biological target: T1, TSPO (Rattus norvegicus, UniProt P16257); experiment: Dynamic microPET of [18F]VUIIS-1008 in C6 glioma-bearing rats, with compartmental modeling and in vivo displacement; design: from tissue; host or cells: C6 glioma tumour and normal brain / other tissues of living rats; conditions: for VT (calculated): mean ± SE; for tracer distribution tumor vs normal brain (in words): C6 glioma
Description: Dynamic microPET imaging can be performed as in tumor-bearing and non-tumor-bearing rats. […] […] For displacement studies, ‘cold’ analog (10 mg/kg) are injected via jugular catheter 30 min after radiotracer administration. Prior to PET scanning, tumors are localized in tumor-bearing rats using MRI, including T2-weighted and diffusion-weighted scans. For longitudinal studies, tumor volumes are measured using a three-dimensional, T2-weighted fast spin-echo sequence on a Varian 9.4 T horizontal bore imaging system.
A 3-compartment, 4-rate constant kinetic model can be used to characterize [^18F]PBR06 pharmacokinetics. […] These rate constants can be used to calculate the total volume of distribution (VT) in tissues of interest. Modeling will be carried out for whole brain (excluding tumor) and tumor by fitting time-activity curves (TACs) of each region.
Before PET imaging with ^18F-VUIIS1008, brain tumors were localized with T2-weighted MRI. […] After the initial spike in radioactivity consistent with tracer injection, ^18F-VUIIS1008 rapidly cleared from the plasma. Imaging-matched brains were processed for staining and immunohistochemistry. Using standard hematoxylin and eosin staining to localize the tumor, the present inventors discovered that TSPO expression was significant higher in tumor than in the adjacent healthy brain.
In order to fully evaluate the novel performance of ^18F-VUIIS1008, we have also determined ^18F-VUIIS 1008 pharmacodynamics with arterial input function.

[2] = biological target: T1, TSPO; experiment: Radioligand displacement of [3H]PK 11195 in C6 glioma cell / tumor lysate; format: binding; design: from tissue; host or cells: C6 glioma tumour and normal brain / other tissues of living rats
Description: Given our focus of targeting TSPO expressed in tumors, affinity assays will be conducted in whole and fractionated tumor lysate.
In this Example Glioma-bearing rats were imaged with [^18F]PBR06 in a microPET system. Dynamic acquisitions were acquired simultaneously upon injection of 70-100 MBq/0.2 mL [^18F]PBR06. Over the course of scanning, arterial blood was collected to derive the input function, with HPLC radiometabolite analysis performed on selected samples for arterial input function correction. Compartmental modeling of the PET data was performed using the corrected arterial input function. Specific tumor cell binding of PBR06 was evaluated by radioligand displacement of [^3H]PK 11195 with PBR06 in vitro and by displacement of [^18F]PBR06 with excess PBR06 in vivo. Immediately following imaging, tumor tissue and adjacent healthy brain were harvested for assay of TSPO protein levels by western blotting and immunohistochemistry.
Radioligand displacement of the high-affinity isoquinoline carboxamide TSPO ligand [^3H]PK 11195 was used to evaluate the specific binding of the non-radioactive analogue PBR06 in C6 glioma cell line homogenates in vitro (FIG. 10). […]

[3] = biological target: T2, TSPO (Mus musculus, UniProt P50637); experiment: TSPO-PET with 18F-VUIIS1008 in Lrig1-CreERT2;Apcfl/+ mouse model of colorectal cancer; format: in vivo
T2 construct: from tissue; host or cells: colon tumours (Lrig1-CreERT2;Apcfl/+ mice) and pancreatic tumours (Ptf1a-cre;LSL-KrasG12D;Tgfbr2fl/fl mice) in living mice
Description: All studies were conducted in accordance with federal and institutional guidelines. Lrig1-CreERT2/+mice (35) were crossed to Apcfl/+mice to generate Lrig1-CreERT2/+; Apcfl/+mice. Six to eight week old mice were injected with 2 mg tamoxifen (Sigma Aldrich) intraperitoneally for three consecutive days to induce tumor formation. Mice were imaged approximately 100 days after injection of tamoxifen and then sacrificed
Colonoscopy (KARL STORZ-SCB Endoscope System) was performed monthly beginning two months after tamoxifen induction. Mice are anesthetized and immobilized using 2% isofluorane anesthesia in 100% oxygen at 2 L/min. Tumor formation within a single mouse was tracked over time. Upon visual detection of distal colon tumors mice were designated for PET imaging.
PET imaging was performed using a dedicated small animal PET scanner (Concorde Microsystems Focus 220) as described. Briefly, mice were maintained under 2% isofluorane anesthesia in 100% oxygen at 2 L/min and kept warm via a circulating water heating pad during the PET scan. Animals were administered 7.4-9.3 MBq of [^18F]-VUIIS1008 intravenously and allowed free access to food and water during a 50 minute uptake period and a 20 minute PET acquisition. Scans were reconstructed using OSEM3D/MAP.

[4] = 1-tissue model, tumor, mean (SE in next line)

SMILES: CCc1cc(CC)n2nc(-c3ccc(OCCF)cc3)c(CC(=O)N(CC)CC)c2n1 [[^18F]VUIIS-1008]
- K1 ([1]; 1-tissue model, brain, mean): 0.3161 mL/g/min
- k2 ([1]; 1-tissue model, brain, mean): 0.3048 min⁻¹
- VT (calculated) ([1]; 1-tissue model, brain): 1.3 ± 0.2
- K1 [1, 4]: 0.3535 mL/g/min
- k2 [1, 4]: 0.0964 min⁻¹
- VT (calculated) ([1]; 1-tissue model, tumor): 3.6 ± 0.6
- K1 ([1]; 2-tissue model, brain, mean): 0.5856 mL/g/min
- k2 ([1]; 2-tissue model, brain, mean): 2.0217 min⁻¹
- k3 ([1]; 2-tissue model, brain, mean): 0.2903 min⁻¹
- k4 ([1]; 2-tissue model, brain, mean): 0.0912 min⁻¹
- VT (calculated) ([1]; 2-tissue model, brain): 1.7 ± 0.4
- K1 ([1]; 2-tissue model, tumor, mean): 0.5448 mL/g/min
- k2 ([1]; 2-tissue model, tumor, mean): 1.2413 min⁻¹
- k3 ([1]; 2-tissue model, tumor, mean): 0.1300 min⁻¹
- k4 ([1]; 2-tissue model, tumor, mean): 0.0234 min⁻¹
- VT (calculated) ([1]; 2-tissue model, tumor): 4.6 ± 0.8
- K1 ([1]; 3-tissue model, brain, mean): 0.6925 mL/g/min
- k2 ([1]; 3-tissue model, brain, mean): 3.7619 min⁻¹
- k3 ([1]; 3-tissue model, brain, mean): 0.8194 min⁻¹
- k4 ([1]; 3-tissue model, brain, mean): 0.2569 min⁻¹
- k5 ([1]; 3-tissue model, brain, mean): 0.5314 min⁻¹
- k6 ([1]; 3-tissue model, brain, mean): 0.1748 min⁻¹
- VT (calculated) ([1]; 3-tissue model, brain): 1.4 ± 0.2
- K1 ([1]; 3-tissue model, tumor, mean): 0.6449 mL/g/min
- k2 ([1]; 3-tissue model, tumor, mean): 2.9459 min⁻¹
- k3 ([1]; 3-tissue model, tumor, mean): 0.4597 min⁻¹
- k4 ([1]; 3-tissue model, tumor, mean): 0.1371 min⁻¹
- k5 ([1]; 3-tissue model, tumor, mean): 0.2304 min⁻¹
- VT (calculated) ([1]; 3-tissue model, tumor): 6.4 ± 1.8
- k6 ([1]; 3-tissue model, tumor, mean, listed as [18F]VUIIS1008): 0.0574 min⁻¹
- stability in plasma, HPLC radiometabolite assay (in words) ([1]; 90 min dynamic PET scan): high stability of this probe in the 90 min dynamic PET scan
- tracer distribution tumor vs normal brain (in words) [1]: robust tumor uptake, yet very little normal brain uptake
- tracer distribution tumor vs normal brain (in words) ([1]; listed as 18F-VUIIS1008): most of the uptake in the brain was localized to the tumor, with only modest accumulation in the adjacent, normal brain
- clearance and accumulation compared with 18F-DPA714 (in words) ([1]; glioma-bearing rats): a similar clearance and accumulation in brain, while a faster clearance and a slower accumulation in tumor
- displacement from the tumor by 'cold' VUIIS-1008 (in words) ([1]; in vivo displacement): no detectable displacement from the tumor
- increase in tracer levels in plasma on displacement with 'cold' VUIIS-1008 ([1]; in vivo displacement): 25 fold
- binding affinity (in words) ([2]; tumor lysate / C6 cell lysate): improved binding affinity in tumor lysate compared to PBR06 or DPA-714
- binding affinity ([2]; whole tumor lysate): ~1 nM
- tracer uptake in distal colon (in words) ([3]; Lrig1-CreERT2;Apcfl/+ mice with colonoscopy confirmed tumors): increased, focal uptake in the distal colon compared to adjacent non-tumor tissue and wild type controls
- tracer uptake in colon (in words) ([3]; wild type mice): low tracer uptake in the colon
